Results on two compounds are retold here after patent publication US6794124B2, “Preservation solution” (Stiftelsen Facthor, priority 1995, dated 2004).

The subject of data set [1] is smooth muscular cells and endothelial cells from blood vessels. Put plainly: morphology of blood vessel cells after long storage with or without calcium (FIG. 2). The source says: The vascular endothelium contains hydrocarbon chains which are bound to proteins in the cell membranes, and these constitute a so-called layer of glycocalyx. This is a thin layer of a mucous substance (composed of sugars) which is considered to enclose the cell membranes and which is important to the properties of immunity of the cell and makes the cell wall permeable. These hydrocarbon chains are bound together by, among other things, calcium. If the vascular endothelial cells are subjected to calcium-free solutions for a long time, a disintegration of the important layer of glycocalyx is assumed to take place, and the function of the endothelium thus cannot be perfect. Evidence of these discoveries has been obtained through electron microscope studies of cell membranes in blood vessels that have been stored in preservation solutions with and without calcium.
The pictures show, on the one hand, smooth muscular cells from blood vessels and, on the other hand, endothelial cells from blood vessels that have been stored for a long time with or without calcium. In the case of preservation without calcium (a: smooth muscular cell and c: endothelial cell), there appears an enormous swelling of the nuclei and the cytoplasm in both types of cells.

For data set [2], the system named is blood vessels. Put plainly: short-term and long-term preservation of blood vessels.

In the case of `[Ca+2]` [calcium], the “cell morphology after long storage” value in data set [1] was “normal structures of the cells”. In addition, the “time for which smooth muscle function in blood vessels is preserved” value in data set [2] (long-term preservation) was “up to 36 hours”.
Take heparin [reference compound]: the “toxicity to the vascular endothelium / endothelial function” value in data set [2] was “not toxic to the endothelial function”.
